Laboratory results published in ChEMBL document CHEMBL1649321, “Plasmid-mediated resistance to cephalosporins in Salmonella enterica serovar Typhi” (2010).
Converted amounts (≈) assume the structure as drawn.

Columns and labels:
Salmonella typhi [1] = assay: Antimicrobial activity against Salmonella enterica serovar Typhi isolate 080048Ty transconjugant harboring bla CTX-M-15 gene by broth microdilution method; format: functional, Salmonella enterica subsp. enterica serovar Typhi
Escherichia coli [2] = assay: Antimicrobial activity against Escherichia coli W3110 transformant harboring bla CTX-M-15 gene by broth microdilution method; format: functional
Salmonella typhi [3] = assay: Antimicrobial activity against Salmonella enterica serovar Typhi isolate 080049Ty by broth microdilution method; format: functional, Salmonella enterica subsp. enterica serovar Typhi
Salmonella typhi [4] = assay: Antimicrobial activity against Salmonella enterica serovar Typhi isolate 080048Ty by broth microdilution method; format: functional, Salmonella enterica subsp. enterica serovar Typhi
Escherichia coli [5] = assay: Antimicrobial activity against Escherichia coli W3110 transformant harboring bla CTX-M-15 gene by broth microdilution method in presence of beta-lactamase inhibitor clavulanic acid; format: functional
Salmonella typhi [6] = assay: Antimicrobial activity against Salmonella enterica serovar Typhi isolate 080049Ty by broth microdilution method in presence of beta-lactamase inhibitor clavulanic acid; format: functional, Salmonella enterica subsp. enterica serovar Typhi
Salmonella typhi [7] = assay: Antimicrobial activity against Salmonella enterica serovar Typhi isolate 080048Ty transconjugant harboring bla CTX-M-15 gene by broth microdilution method in presence of beta-lactamase inhibitor clavulanic acid; format: functional, Salmonella enterica subsp. enterica serovar Typhi
Salmonella typhi [8] = assay: Antimicrobial activity against Salmonella enterica serovar Typhi isolate 080048Ty by broth microdilution method in presence of beta-lactamase inhibitor clavulanic acid; format: functional, Salmonella enterica subsp. enterica serovar Typhi

| SMILES | MIC (Salmonella typhi [1]) [µg/mL] | MIC (Escherichia coli [2]) [µg/mL] | MIC (Salmonella typhi [3]) [µg/mL] | MIC (Salmonella typhi [4]) [µg/mL] | MIC (Escherichia coli [5]) [µg/mL] | MIC (Salmonella typhi [6]) [µg/mL] | MIC (Salmonella typhi [7]) [µg/mL] | MIC (Salmonella typhi [8]) [µg/mL] |
| --- | --- | --- | --- | --- | --- | --- | --- | --- |
| CC1(C)S[C@@H]2[C@H](NC(=O)[C@H](N)c3ccccc3)C(=O)N2[C@H]1C(=O)O [AMPICILLIN] | > 64 | > 64 | > 64 | < 2 | – | – | – | – |
| CO/N=C(\C(=O)N[C@@H]1C(=O)N2C(C(=O)O)=C(COC(C)=O)CS[C@H]12)c1csc(N)n1 [CEFOTAXIME] | > 128 | > 128 | > 128 | 0.125 (≈ 0.274 µM) | < 0.125 | < 0.125 | < 0.125 | < 0.125 |
| CC(C)(O/N=C(\C(=O)N[C@@H]1C(=O)N2C(C(=O)[O-])=C(C[n+]3ccccc3)CS[C@H]12)c1csc(N)n1)C(=O)O [CEFTAZIDIME] | 64 (≈ 117 µM) | 64 (≈ 117 µM) | 64 (≈ 117 µM) | 1 (≈ 1.83 µM) | 0.25 | 0.25 | 0.25 | 0.25 |
| CO/N=C(\C(=O)N[C@@H]1C(=O)N2C(C(=O)O)=C(CSc3nc(=O)c(O)nn3C)CS[C@H]12)c1csc(N)n1 [CEFTRIAXONE] | > 128 | > 128 | > 128 | 0.125 (≈ 0.225 µM) | – | – | – | – |
| CCn1cc(C(=O)O)c(=O)c2ccc(C)nc21 [NALIDIXIC ACID] | > 64 | 32 (≈ 138 µM) | > 64 | > 64 | – | – | – | – |
